Data on one molecule can be found in patent US20230416672A1, “Rhodococcus qingshengii bacterial strain that degrades imazethapyr and stimulates crop growth” (priority 2020, published 2023).

In test [1] the test system is soft wheat (Triticum aestivum L.) variety Favorite. The experiment in a line: Growth of soft wheat in soil artificially contaminated with imazethapyr (Example 2). To be noted: imazethapyr 10 mg/kg soil (Viaduk VK), without bacterization, 25 days. In kind it is in vivo. The method, then:
(§1) The soil in the experiment was artificially polluted with the herbicide preparation “Viaduk VK” (Active substance: imazethapyr, 100 g/L), introducing the drug with water for irrigation at a dosage, according to the instructions, to a final concentration of imazethapyr 10 mg/kg of soil. The soil was moistened to 50% of the total moisture capacity. Seeds of soft wheat (Triticum aestivum L.) varieties “Favorite” 20 pcs. were sown in 1-liter pots containing 1 kg of soil. […]
(§2) The experiment was carried out under controlled conditions: at a temperature of 24/20° C., a light regime of 14/10 h (illumination—8000 lux), day/night, respectively, maintaining soil moisture at a level of 50% of the total moisture capacity by irrigation with settled tap water, the need for which was determined by weighing vessels. […] They were dried with filter paper, the length of roots and shoots was measured, they were separated and dried to constant weight at 65° C. […] The content of imazethapyr in soil was determined as described previously (Assalin M. R., Queiroz S. C. N., Ferracini V. L., Oliveira T., Vilhena E., Mattos M. L. T. A method for determination of imazapic and imazethapyr residues in soil using an ultrasonic assisted extraction and LC-MS/MS//Bull. Environ. Contam. Toxicol.—2014.—Vol. 93.—P. 360-364) using HPLC. […]

Test [2] can be described thus: Imazethapyr content in soil in laboratory experiment (Example 2, HPLC). To be noted: end of experiment (47 days), original contaminated soil 6.17. As for the experimental part:
as §1, §2

Regarding `CCc1cnc(C2=NC(C)(C(C)C)C(=O)N2)c(C(=O)O)c1` (stereo not drawn) [imazethapyr], the “growth of wheat plants in freshly contaminated soil” value in test [1] was “strong inhibition”. Also, the Imazethapyr content in test [2] (soil with wheat) is reported as 5.90 mg/kg; in test [2] (soil without plants) it was 5.87 mg/kg.
